# Reference: US20170218375A1, “MORPHOLINOS, MORPHOLINO UPREGULATING, AND ASSOCIATED METHODS” (University of Utah Research Foundation, priority 2011, published 2017)
# {Dendrimer} = dendrimer conjugate (vivo-morpholino)
# Key:
# Format in all cases: in vivo
# [1] = test system: mbVEGFR2 protein; experiment: Western blot for mbVEGFR2 from mouse retinal protein after intravitreous injection; conditions: 2 μl of 100 ng/μl intravitreously on day 0 and day 3, western blot on day 4
# Description: (§1) To administer morpholinos in vivo, morpholino conjugated with a dendrimer at the 3′ position (vivo-morpholino) was used for animal experiments. It should be understood that this technique is merely exemplary, and any other method of administration is considered to be within the present scope. […] Next, the protein level of mbVEGFR2 and sVEGFR2 in the retina and the ocular solution was examined by western blot. Consistent with real-time PCR results, moVEGFR2_MOe13 decreased mbVEGFR2 protein in the retina (FIG. 7C) and increased sVEGFR2 protein in the ocular solution (FIG. 7D).
# (§2) To examine whether moVEGFR2_MOe13 could work in the mouse eye, on day 0 and day 3 2 μl of 100 ng/μl moVEGFR2_MOe13 or STD_MO or DPBS were injected intravitreously. On day 4, retinal total RNA was extracted with RNeasy mini kit with DNaseI treatment. sVEGFR2 and mbVEGFR2 mRNA expression were determined by the method described above. For western blot of mbVEGFR2, on day 4, retina was dissolved in RIPA buffer. For western blot of sVEGFR2, on 4 day, intraocular solution was obtained from 6 eyes by pipette. After centrifuge, supernatant was used for further experiment. For western blot, biotin-conjugated anti-VEGFR2 (BAF644, R&D Systems, Minneapolis, Minn.) was used at 1 μg/μl.
# [2] = test system: sVEGFR2 protein; experiment: Western blot for sVEGFR2 from mouse ocular solution after intravitreous injection; conditions: 2 μl of 100 ng/μl intravitreously on day 0 and day 3, western blot on day 4
# Description: as §1, §2
# [3] = test system: corneal transplant rejection; experiment: Mouse corneal transplantation model
# Description: It was also examined whether moVEGFR2_MOe13 can suppress murine corneal transplant rejection. After cornea transplantation, moVEGFR2_MOe13, STD_MO or DPBS were injected subconjuctivally. […] The arrow indicates censored data. […] Scale bar is 1 mm. FIGS. 12(c, d) Show the mean area of corneal neovascularization and lymphangiogenesis at 8 weeks respectively (n=11-17). Risk factors (p-value) were calculated by two-tail student's t-test (*: p<0.05, **p<0.01). Error bar is ±s.e.m.
# Mouse corneal transplantation has been described previously. The donor cornea was marked with 2 mm trephine, the anterior chamber was penetrated using a knife (ClearCut™ Alcon, Inc) and the cornea was cut with Vannas scissors and then placed in Balanced Salt Solution (BSS® Alcon Laboratories, Inc, Fort Worth). The recipient mouse was anesthetized by intramuscular injection with ketamine (100 mg/kg body weight) and xylazine (20 mg/kg body weight). To dilate pupil and anesthetize the cornea, 1% tropicamide ophthalmic solution and 0.5% proparacaine ophthalmic solution were used. The recipient's right cornea was marked with 1.5 mm trephine and removed by the same method as the donor cornea. Viscoelastic material (Healon, 1% sodium hyaluronate, Abbott Medical Optics, IL) was used during recipient cornea dissection. […]
substance,measurement,setting,value
"5′-cacccagggatgcctccatacCTAG-3′ (antisense CACCCAGGGATGCCTCCATACCTAG; all phosphorodiamidate morpholino (PMO), 3' {Dendrimer}) [moVEGFR2_MOe13, morpholino that targets the exon13-intron13 junction of the mouse VEGFR2 gene; in vivo conjugated with a dendrimer (vivo-morpholino)]",mbVEGFR2 protein in the retina,[1],decreased
same,sVEGFR2 protein in the ocular solution,[2],increased
same,corneal neovascularization and lymphangiogenesis at 8 weeks,"[3]; mean area, CD31 and LYVE-1 stained cornea at the endpoint (8 weeks), FIGS. 12C, D",decreased
same,graft survival,"[3]; mouse cornea transplantation, 15 ul of 40 ng/μl subconjunctivally day of transplantation and weeks 1-4, compared with DPBS and STD_MO (log rank p=0.0186 and 0.0610)",increased
